Measurements taken from US20100256105A1, “NOVEL COMPOUNDS” (AstraZeneca R&D, priority 2009, published 2010).

Target: T1, recombinant human GR (Homo sapiens, UniProt P04150)
T1 construct: purchased Panvera/Invitrogen P2812 (kit P2893)
T1 sequence (P04150 1-777): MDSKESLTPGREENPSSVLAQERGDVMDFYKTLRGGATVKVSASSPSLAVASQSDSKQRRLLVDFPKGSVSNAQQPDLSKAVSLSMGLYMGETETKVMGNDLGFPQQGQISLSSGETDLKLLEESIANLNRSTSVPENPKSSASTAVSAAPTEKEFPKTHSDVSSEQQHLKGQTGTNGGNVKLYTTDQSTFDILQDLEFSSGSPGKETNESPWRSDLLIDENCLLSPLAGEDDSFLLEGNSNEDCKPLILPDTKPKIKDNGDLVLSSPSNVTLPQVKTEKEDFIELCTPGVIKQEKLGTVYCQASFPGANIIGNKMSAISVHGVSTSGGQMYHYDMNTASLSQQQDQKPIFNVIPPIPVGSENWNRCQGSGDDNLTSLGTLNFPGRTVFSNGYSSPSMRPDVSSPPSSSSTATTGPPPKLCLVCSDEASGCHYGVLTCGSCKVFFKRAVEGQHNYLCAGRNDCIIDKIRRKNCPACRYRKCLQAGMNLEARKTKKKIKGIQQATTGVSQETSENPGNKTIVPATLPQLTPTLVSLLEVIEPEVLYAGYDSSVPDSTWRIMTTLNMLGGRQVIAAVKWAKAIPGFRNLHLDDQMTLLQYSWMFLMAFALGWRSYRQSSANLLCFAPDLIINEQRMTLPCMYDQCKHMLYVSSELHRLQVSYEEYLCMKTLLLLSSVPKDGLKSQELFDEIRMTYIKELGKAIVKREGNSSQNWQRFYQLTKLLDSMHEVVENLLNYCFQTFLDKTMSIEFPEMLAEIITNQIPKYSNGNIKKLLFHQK
Assay: Human Glucocorticoid Receptor (GR) Assay, fluorescence polarization
Settings: GS Red tracer, 2 hours at room temperature, 100% control 10 μM Dexamethasone, read-out: Inhibition of GR binding, IC50
Procedure: Human Glucocorticoid Receptor (GR) Assay The assay is based on a commercial kit from Panvera/Invitrogen (Part number P2893). The assay technology is fluorescence polarization. The kit utilises recombinant human GR (Panvera, Part number P2812), a Fluoromone™ labelled tracer (GS Red, Panvera, Part number P2894) and a Stabilizing Peptide 10× (Panvera, Part number P2815). The GR and Stabilizing Peptide reagents are stored at −70° C. while the GS Red is stored at −20° C. Also included in the kit are 1M DTT (Panvera, Part number P2325, stored at −20° C.) and GR Screening buffer 10× (Panvera, Part number P2814, stored at −70° C. initially but once thawed stored at room temperature). Avoid repeated freeze/thaws for all reagents. The GR Screening buffer 10× comprises 100 mM potassium phosphate, 200 mM sodium molybdate, 1 mM EDTA and 20% DMSO. Test compounds (1 μL) and controls (1 μL) in 100% DMSO were added to black polystyrene 384-well plates (Greiner low volume black flat-bottom, part number 784076). 0% control was 100% DMSO and 100% control was 10 μM Dexamethasone. Background solution (8 μL; assay buffer 10×, Stabilizing Peptide, DTT and ice cold MQ water) was added to the background wells. GS Red solution (7 μL; assay buffer 10×, Stabilizing Peptide, DTT, GS Red and ice cold water) was added to all wells except background wells. GR solution (7 μL; assay buffer 10×, Stabilizing Peptide, DTT, GR and ice cold water) was added to all wells. The plate was sealed and incubated in a dark at room temperature for 2 hours. The plate was read in an Analyst plate reader (LJL Biosystems/Molecular Devices Corporation) or other similar plate reader capable of recording fluorescence polarization (excitation wavelength 530 nm, emission wavelength 590 nm and a dichroic mirror at 561 nm).

Compound | IC50 [nM]
CC1=C[C@@H]2[C@H]([C@@H](O)C[C@@]3(C)[C@H]2CC[C@]3(OC(=O)c2cocn2)C(=O)SCF)[C@@]2(C)Cc3cnn(-c4ccc(F)nc4)c3C=C12 [Example 14, (1R,3aS,3bS,10aR,10bS,11S,12aS)-1-{[(fluoromethyl)sulfanyl]carbonyl}-7-(6-fluoropyridin-3-yl)-11-hydroxy-5,10a,12a-trimethyl-1,2,3,3a,3b,7,10,10a,10b,11,12,12a-dodecahydrocyclopenta[5,6]naphtho [1,2-f]indazol-1-yl 1,3-oxazole-4-carboxylate] | 2.9
COCC(=O)O[C@]1(C(=O)SCF)CC[C@H]2[C@@H]3C=C(C)C4=Cc5c(cnn5-c5ccc(F)nc5)C[C@]4(C)[C@H]3[C@@H](O)C[C@@]21C [Example 16, (1R,3aS,3bS,10aR,11S,12aS)-1-{[(fluoromethyl)sulfanyl]carbonyl}-7-(6-fluoropyridin-3-yl)-11-hydroxy-5,10a,12a-trimethyl-1,2,3,3a,3b,7,10,10a,10b,11,12,12a-dodecahydrocyclopenta[5,6]naphtho [1,2-f]indazol-1-yl methoxyacetate] | 1.5
CC1=C[C@@H]2[C@H]([C@@H](O)C[C@@]3(C)[C@H]2C[C@@H](C)[C@]3(OC(=O)c2ccco2)C(=O)SCC#N)[C@@]2(C)Cc3cnn(-c4ccccc4)c3C=C12 [Example 18, (1R,2R,3aS,3bS,10aR,10bS,11S,12aS)-1-{[(cyanomethyl)sulfanyl]carbonyl}-11-hydroxy-2,5,10a,12a-tetramethyl-7-phenyl-1,2,3,3a,3b,7,10,10a,- 10b,11,12,12a-dodecahydro-cyclopenta[5,6]naphtho[1,2-f]indazol-1-yl furan-2-carboxylate] | 12

Results, then the molecule that gave them:

IC50 [nM] | Compound
3.7 | CC1=C[C@@H]2[C@H]([C@@H](O)C[C@@]3(C)[C@H]2CC[C@]3(OC(=O)c2cocn2)C(=O)SCC#N)[C@@]2(C)Cc3cnn(-c4ccc(F)nc4)c3C=C12 [Example 15, (1R,3aS,3bS,10aR,10bS,11S,12aS)-1-{[cyanomethyl)sulfanyl]carbonyl}-7-(6-fluoropyridin-3-yl)-11-hydroxy-5,10a,12a-trimethyl-1,2,3,3a,3b,7,10,10a,10b,11,12,12a-dodecahydrocyclopenta[5,6]naphtho [1,2-f]indazol-1-yl 1,3-oxazole-4-carboxylate]
4.8 | CCC(=O)O[C@]1(C(=O)SCC#N)[C@H](C)C[C@H]2[C@@H]3C=C(C)C4=Cc5c(cnn5-c5ccccc5)C[C@]4(C)[C@H]3[C@@H](O)C[C@@]21C [Example 17, (1R,2R,3aS,3bS,10aR,10bS,11S,12aS)-1-{[(cyanomethyl)sulfanyl]carbonyl}-11-hydroxy-2,5,10a,12a-tetramethyl-7-phenyl-1,2,3,3a,3b,7,10,10a,- 10b,11,12,12a-dodecahydro-cyclopenta[5,6]naphtho[1,2-f]indazol-1-yl propanoate]
